In patent US12422427B2, “Compounds for treatment of diseases and methods of screening therefor” (Max-Planck-Gesellschaft zur Förderung der Wissenschaften …, priority 2018, dated 2025):

How the values were obtained:
[1] = target: T1, FUS low complexity domain (residues 1 to 163) (Homo sapiens, UniProt P35637); experiment: 1H-15N HSQC NMR of FUS low complexity domain with compound; assay type: binding; conditions: 500 μM compound
T1 construct: untagged FUS low complexity domain (residues 1 to 163) expressed, purified and analysed; made in house
T1 sequence (P35637 1-163): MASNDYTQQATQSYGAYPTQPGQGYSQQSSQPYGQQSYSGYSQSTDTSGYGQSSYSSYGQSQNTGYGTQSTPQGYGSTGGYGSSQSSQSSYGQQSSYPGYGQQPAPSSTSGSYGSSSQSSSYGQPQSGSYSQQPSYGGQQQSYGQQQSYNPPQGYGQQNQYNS
Experimental: Finally, mechanistic detail was analyzed at the sub-molecular level by using NMR of the FUS prion-like N-terminal LCD to determine putative sites of lipoamide interaction. The LCD is able to phase separate to form condensates in vitro and the individual residues can be resolved and assigned in a ^1H-^15N heteronuclear single quantum coherence spectrum. ^1H-^15N analyses reveal a change in environment of individual residues as indicated by their corresponding chemical shifts. The magnitude of chemical shift changes were compared with and without both lipoamide or mitoxantrone. […] This leaves several possibilities: Perhaps lipoamide interacts with the FUS LCD only when phase separated, potentially reducing viscosity, or interacts with the condensate phase boundary, perhaps increasing surface tension. Such interactions may reduce formation or expansion of aggregated forms of FUS involved in condensate hardening and reduced liquidity.
For analysis of compound interaction with FUS untagged FUS low complexity domain (residues 1 to 163) expressed, purified and analysed using ^1H-^15N heteronuclear single quantum coherence NMR and sample conditions previously described^14 in the presence of 500 μM compound or equivalent DMSO solvent control (1%).

[2] = system: P bodies, Cajal bodies, PML bodies, DNA damage foci, nucleolus; experiment: Effect on other non-membrane bound compartments in HeLa GFP marker lines; assay type: cell-based
Experimental: FIG. 4A) Images of HeLa cells expressing Protein GFP markers of other non-membrane bound compartments subject to 1 h treatment with 10 μM compound (or DMSO control). Where unclear, the position of nuclei is indicated with a dotted outline. […] FIG. 4B) Recruitment of FUS GFP to sites of UV laser-induced DNA damage in iPS cells after 1 h treatment with compound followed by 1 h arsenate stress.
Stress granules are one of several, similar, cytoplasmic RNA-containing liquid-like compartments. […] Several stress granule proteins also form nuclear bodies: nuclear paraspeckles, and foci at the sites of DNA damage. There are also many other nuclear liquid-like compartments. It was then asked whether lipoamide also affected these other bodies, using a panel of cell lines expressing GFP fusions. For this analysis, mitoxantrone was included as a representative of the heterotri-/tetracyclic compound class of hits (FIG. 1F). An overly-broad effect on liquid-like compartments would likely cause side-effects for a therapeutic.
The action of lipoamide is therefore specific to the signaling and/or physical chemistry driving stress granule formation, stress granule phase separation, and/or a specific signaling route. Stress granules normally form and dissolve rapidly in comparison to many other compartments.

KIN-19 = assay type: in vivo, Caenorhabditis elegans; conditions: 1.5 mM
Experimental: The effect of lipoic acid on stress granule protein aggregation in vivo was analysed using a C. elegans model for stress granule formation and aggregation. As previously described, fluorescent-tagged PAB-1 forms abundant stress granules and large solid aggregates during aging or upon chronic stress. RHO-1 and KIN-19 also aggregate during aging, but are not RNA binding or stress granule proteins. Three lines were used: Fluorescently tagged PAB-1 (DCD214: N2; uqIs24[pmyo-2::tagrfp::pab 1gene]), KIN-19 (CF3649: N2; muIs 209[pmyo-3::kin-19::tagrfp+ptph-1::GFP] and RHO-1 (DCD13: N2; uqIs9 [pmyo-2::rho-1::tagr fp+ptph-1::gfp]). Each were analysed as below, except DCD13 were maintained at 20° C.
The animals were exposed to lipoic acid in liquid culture in a 96 well plate starting from larval stage L4 in a total volume of 50 μl S-Complete per well (100 mM NaCl, 50 mM Potassium phosphate pH 6, 10 mM potassium citrate, 3 mM MgSO4, 3 mM CaCl2), 5 μg/mL cholesterol, 50 μM ethylenediaminetetraacetic acid (EDTA), 25 μM FeSO4, 10 μM MnCl2, 10 μM ZnSO4, 1 μM CuSO4) supplemented with heat-killed OP50 and 50 μg/ml carbenicillin. […] Toxicity was evaluated from the number of dead or aberrantly small-sized animals.
48 h after switching the L4s from 20° C. to 25° C. […] After immobilization with 2 mM levamisole aggregation was scored using a fluorescent stereo microscope (Leica M165 FC, Plan Apo 2.0× objective). […]

Row | SMILES | chemical shift changes of FUS LCD residues [1] | disruption of P bodies (DCP1A), Cajal bodies (COIL), DNA damage foci (TRP53BP1), nucleolus (NCB1) ([2]; 1 h treatment with 10 μM compound) | localization of P-body, PML body and DNA damage focus proteins ([2]; conditions that would dissolve stress granules) | KIN-19 aggregation (KIN-19)
1 | NC(=O)CCCCC1CCSS1 (racemic) [lipoamide, 5-(1,2-dithiolan-3-yl)pentanamide] | no single, clear sites of interaction | does not disrupt | did not affect the localization | 
2 | O=C(O)CCCCC1CCSS1 (racemic) [lipoic acid, 5-(1,2-dithiolan-3-yl)pentanoic acid] |  |  |  | mild decrease
